Test results: patent US4243679A, “S-(3-Methyl-2-butenyl)cysteine” (priority 1978, dated 1981)
Like-named read-outs stand apart in the source and are kept apart here.

How the values were obtained:
[1] = test system: tracheobronchial secretion; test: Secretogogue activity, Mawatari's technique (bronchial elimination of sodium fluoresceine), mouse; format: in vivo
Method: (§1) The capacity of increasing tracheobronchial secretion was determined by the technique of bronchial elimination of sodium fluoresceine (Mawatari, Kagoshima Daigak Igaku Zasshi, 27, 561 (1976)) on two animal species and by two different administration routes: oral and parenteral.
(§2) Secretogogue activity - Mawatari's technique
(§3) Three dose levels n = 15-40 = number of test animals
(§4) Male animals were used -

[2] = test system: tracheobronchial secretion; test: Secretogogue activity, Mawatari's technique (bronchial elimination of sodium fluoresceine), rat; format: in vivo
Method: as §1, §2, §3, §4

[3] = test system: tracheobronchial secretion; test: Secretogogial activity, bronchial elimination of sodium fluoresceine, two animal species (overall statement); format: in vivo, Mouse; Rat; conditions: oral and parenteral
Method: as §1

mucus = test: Expectorant activity, Perry-Boyd technique; format: in vivo; conditions: rabbit; for % increase with regard to controls: fluid collected
Source text: Determination of the expectorant activity was achieved by the technique of collecting mucus of anaesthetized rabbits breathing in conditioned air at body humidity and temperature (Perry and Boyd, J. Pharmacol. Exp. Ther., 23 65(194l)), and measuring the percentage increase of fluid collected in relation to controls.
Expectorant activity. Perry-Boyd technique, in
rabbit. Oral route, n = 12 = number of test

respiratory mucus = test: Modification of respiratory mucus composition, Giraldez-Gras method; format: in vivo, rabbit
Method: By means of an original technique (Giraldez and Gras), XXVI Congr. IUPS, Abstr. 777, Paris 1977)) which allows the collection of abundant samples of mucus on conscious animals and on consecutive days, the amount of eliminated mucus, its biochemical composition and its physico-chemical constants were studied. In addition to the two standards used before, N-acetylcysteine was also administered by topic route. |Modification of mucus composition. Giraldez-Gras Method, in rabbit |Oral route n = 12-30 = number of test animals

[4] = oral; cited from earlier work
ciliary epithelium = test: Effect on the ciliary movement: mucus transport time in isolated dog trachea
Source text: This vehicle was also used as the blank.
Mucus transport time, in isolated dog trachea

Acute toxicity, rat = conditions: in vivo
Source text: (§5) The weight of the animals was of 180±20 g for rats and >25 g for mice.

Acute toxicity, mouse = conditions: in vivo
Source text: as §5

[5] = Acute toxicity, two species (overall statement); format: in vivo, Rat; Mouse; conditions: oral and intraperitoneal
Source text: as §5

[6] = Subacute toxicity in rat (one month); format: in vivo; conditions: 100, 300 and 1000 mg/kg/day
Method: In order to study the toxicity of ITA 275 in the rat, this compound was given at doses of 100, 300 and 1000 mg/kg/day during one month, to 100 rats (.male./.female.=50/50)

[7] = Subchronic toxicity in rat (six months); format: in vivo; conditions: 100, 300 and 1000 mg/kg/day
Source text: ITA 275 was given during six months to rats at the same doses as in the preceding test. The number of animals used was of 100 (.male./.female.=50/50).

[8] = rabbit, oral, 500 mg/kg, ***p < 0,005
[9] = ip, confidence limits on next printed line
[10] = ip, confidence limits printed on next line
[11] = rabbit, 0,1 ml/kg sol. 20% (topic)

CN(Cc1cc(Br)cc(Br)c1N)C1CCCCC1 [Bisolvon, Bromhexine]
Max. efficiency % secretion increase ([1]; i.p.): 26,0%
ED25 ([1]; ip, read-out: ED25): 32 mg/kg
ED25 ([1]; p.o.): no corre-
Max. efficiency % secretion increase ([1]; p.o.): 34,7%
ED50 ([2]; p.o.): no corre-
Max. efficiency % secretion increase ([2]; p.o.): 14,8%
Secretogogial activity (in words) [3]: below statistical significance and did not follow a constant dose-effect sequence
% increase with regard to controls (mucus; 20 mg/kg p.o.): 20,6%
% increase with regard to controls (mucus; 40 mg/kg p.o.): 38,1%
% Increase Muco-proteins (respiratory mucus; rabbit, oral, 40 mg/kg): 4,9 ± 8,9%
% Increase SH Groups (respiratory mucus; rabbit, oral, 40 mg/kg): 0,3 ± 13,4%
% Increase mucus weight (respiratory mucus; rabbit, oral, 40 mg/kg): -6,1 ± 8,3%
% Increase total proteins (respiratory mucus; rabbit, oral, 40 mg/kg): 3,1 ± 14,4%
absorption when orally administered (in words) [4]: well adsorbed when orally administered
side effects (in words) [4]: practically no side effects

CC(C)=CCSC[C@H](N)C(=O)O [ITA 275, S-(3-methyl-2-butenyl)-cysteine]
Max. efficiency % secretion increase ([1]; i.p.): 42,7%
ED25 ([1]; ip, read-out: ED25): 218 mg/kg
Max. efficiency % secretion increase ([1]; p.o.): 20,7%
ED25 ([1]; po, read-out: ED25): 611 mg/kg
Max. efficiency % secretion increase ([2]; p.o.): 57,0%
ED50 ([2]; po, read-out: ED50): 447 mg/kg
Secretogogial activity (in words) [3]: showed activity
% increase with regard to controls (mucus; 500 mg/kg p.o.): 135,6%
Expectorant activity compared with S-carboxymethylcysteine (in words) (mucus; oral route): somewhat more active than S-carboxymethylcysteine
content of total proteins (in words) (respiratory mucus; rabbit): increase in the content of total proteins
mucolytic property demonstrated by the release of -SH groups (in words) (respiratory mucus; rabbit): does not present the mucolytic property of N-acetylcysteine
mucus elimination (in words) (respiratory mucus; rabbit): great increase in mucus elimination
% Increase SH Groups (respiratory mucus; rabbit, oral, 500 mg/kg): 29,2 ± 14,4%
% Increase mucus weight (respiratory mucus; rabbit, oral, 500 mg/kg): 466,1 ± 343,5%
% Increase Muco-proteins (respiratory mucus; [8]): 32,7 ± 14,3%
% increase of ciliary transport time (ciliary epithelium; 10 mM, 0 min, p<0,001): 162,3 ± 13,4%
% increase of ciliary transport time (ciliary epithelium; 10 mM, 10 min, p<0,01): 107,3 ± 21,8%
% increase of ciliary transport time (ciliary epithelium; 10 mM, 20 min): 16,2 ± 7,6%
duration of the increase in transport time (ciliary epithelium; isolated dog trachea): at least 20 min.
LD50 (Acute toxicity, rat; [9]): 3100 mg/kg
LD50 (Acute toxicity, rat; po): > 4000 mg/kg
LD50 (Acute toxicity, mouse; [10]): 2090 mg/kg
LD50 (Acute toxicity, mouse; po): > 4000 mg/kg
acute toxicity (in words) [5]: very low acute toxicity both by oral and intraperitoneal routes
acute toxicity compared with S-carboxymethylcysteine (in words) [5]: even smaller than that of S-carboxymethylcysteine
general behaviour [6]: No abnormalities
hematological values [6]: remained normal
liver weight [6]: slight increase in liver weight
weight increase, food and water intake [6]: did not modify either the weight increase or the food and water intake
weight of all other organs [6]: did not undergo weight changes
tolerability [7]: well tolerated

CC(=O)N[C@@H](CS)C(=O)O [N-acetylcysteine]
% Increase mucus weight (respiratory mucus; [11]): 150,9 ± 30,8%
% Increase total proteins (respiratory mucus; [11]): 491,4 ± 311,1%
% Increase Muco-proteins (respiratory mucus; rabbit, 0,1 ml/kg sol. 20% (topic), **p < 0,01): 2450,3 ± 480,5%
% Increase SH Groups (respiratory mucus; rabbit, 0,1 ml/kg sol. 20% (topic), *p < 0,1): 305,5 ± 102,9%

N[C@@H](CSCC(=O)O)C(=O)O [S-Carboxymethylcysteine, S-carboxymethylcysteine]
Max. efficiency % secretion increase ([1]; i.p.): 22,3%
ED25 ([1]; ip, read-out: ED25): 764 mg/kg
ED25 ([1]; p.o.): no corre-
Max. efficiency % secretion increase ([1]; p.o.): 6,3%
Max. efficiency % secretion increase ([2]; p.o.): 39,3%
ED50 ([2]; po, read-out: ED50): 1070 mg/kg
Secretogogial activity (in words) [3]: below statistical significance and did not follow a constant dose-effect sequence
% increase with regard to controls (mucus; 500 mg/kg p.o.): 110,9%
% Increase SH Groups (respiratory mucus; rabbit, oral, 500 mg/kg): 11,6 ± 34,2%
% Increase mucus weight (respiratory mucus; rabbit, oral, 500 mg/kg): 16,4 ± 44,9%
% Increase total proteins (respiratory mucus; rabbit, oral, 500 mg/kg): 31,7 ± 27,4%
% Increase Muco-proteins (respiratory mucus; [8]): 131,9 ± 91,8%
LD50 (Acute toxicity, rat; [9]): 2480 mg/kg
LD50 (Acute toxicity, rat; po): > 4000 mg/kg
LD50 (Acute toxicity, mouse; [10]): 1780 mg/kg
LD50 (Acute toxicity, mouse; po): > 4000 mg/kg

COc1cc2c3cc1Oc1cc(ccc1O)C[C@@H]1c4c(cc(OC)c(O)c4Oc4ccc(cc4)C[C@@H]3N(C)CC2)CC[N+]1(C)C [d-turbocurarine]
% increase of ciliary transport time (ciliary epithelium; 10^-4 g/ml, 0 min): 69,8 ± 12,3%
% increase of ciliary transport time (ciliary epithelium; 10^-4 g/ml, 10 min): 32,3 ± 14,5%
